Experimental data taken from patent US11708348B2, “Protease inhibitors for treatment of coronavirus infections” (The Scripps Research Institute, priority 2021, dated 2023).
Read-outs that look alike come from different tables or passages of the source.

Tested on: SARS-CoV-2 strain USA-WA1/2020
Test: microbe, parasite or virus in culture
Format: cell-based
Conditions: Severe acute respiratory syndrome coronavirus 2, HeLa-ACE2, 24 h, read-out: EC50, uM (Hela)
[1] = HeLa-ACE2 cells, SARS-CoV-2 infection, 24 h
[2] = HeLa-ACE2 cells, SARS-CoV-2 infection, 24 h, class symbols
[3] = HeLa-ACE2 cells, SARS-CoV-2 infection, 24 h, given as bound

Structure (SMILES)	EC50 [1]	EC50 [2]	further results
CC(C)C[C@@H](O)C(=O)N1C[C@H]2CC[C@H](C2)[C@H]1C(=O)N[C@@H](C[C@@H]1CCNC1=O)C(=O)COC(F)(F)F [Compound 638, (1R,2S,5S)-3-((R)-2-hydroxy-4-methylpentanoyl)-N-((S)-3-oxo-1-((S)-2-oxopyrrolidin-3-yl)-4-(trifluoromethoxy)butan-2-yl)-3-azabicyclo[3.2.1]octane-2-carboxamide]	0.05 to 0.2 µM		
CC(C)(NC(=O)C(=O)N1Cc2ccccc2C[C@H]1C(=O)N[C@@H](C[C@@H]1CCNC1=O)C(=O)COC(F)(F)F)C(F)(F)F [Compound 472, (S)-N-((S)-3-oxo-1-((S)-2-oxopyrrolidin-3-yl)-4-(trifluoromethoxy)butan-2-yl)-2-(2-oxo-2-((1,1,1-trifluoro-2-methylpropan-2-yl)amino)acetyl)-1,2,3,4-tetrahydro-isoquinoline-3-carboxamide]	0.05 to 0.2 µM		
COc1ccc(/C=C/C[C@@H](O)C(=O)N2CC3(CC3)C[C@H]2C(=O)N[C@@H](C[C@@H]2CCNC2=O)C(=O)COC(F)(F)F)cc1 [Compound 666, (S)-5-((R,E)-2-hydroxy-5-(4-methoxyphenyl)pent-4-enoyl)-N-((S)-3-oxo-1-((S)-2-oxopyrrolidin-3-yl)-4-(trifluoromethoxy)butan-2-yl)-5-azaspiro[2.4]heptane-6-carboxamide]	0.05 to 0.2 µM		
CC(C)C[C@H](NC(=O)[C@H]1CCCO1)C(=O)N[C@@H](C[C@@H]1CCNC1=O)C(=O)COc1c(F)c(F)cc(F)c1F [Compound 26, (R)-N-((S)-4-methyl-1-oxo-1-(((S)-3-oxo-1-((S)-2-oxopyrrolidin-3-yl)-4-(2,3,5,6-tetrafluorophenoxy)butan-2-yl)amino)pentan-2-yl)tetrahydrofuran-2-carboxamide]		0.2 to 0.5 µM	
CC(C)C[C@H](NC(=O)C12CC(C)(CO1)C2)C(=O)N[C@@H](C[C@@H]1CCNC1=O)C(=O)COC(F)(F)F [Compound 313, 4-methyl-N-((S)-4-methyl-1-oxo-1-(((S)-3-oxo-1-((S)-2-oxopyrrolidin-3-yl)-4-(trifluoromethoxy)butan-2-yl)amino)pentan-2-yl)-2-oxabicyclo-[2.1.1]hexane-1-carboxamide]		0.05 to 0.2 µM	
CC(C)C[C@H](NC(=O)C(=O)N[C@H]1CCCOC1)C(=O)N[C@@H](C[C@@H]1CCNC1=O)C(=O)COc1c(F)c(F)cc(F)c1F [Compound 103, N1-((S)-4-methyl-1-oxo-1-(((S)-3-oxo-1-((S)-2-oxopyrrolidin-3-yl)-4-(2,3,5,6-tetrafluorophenoxy)butan-2-yl)amino)pentan-2-yl)-N2-((S)-tetrahydro-2H-pyran-3-yl)oxalamide]		0.05 to 0.2 µM	
COC(=O)C(=O)N1C[C@@H]2CCC[C@@H]2[C@H]1C(=O)N[C@@H](C[C@@H]1CCNC1=O)C(=O)COC(F)(F)F [Compound 569, methyl 2-oxo-2-((1S,3aR,6aS)-1-(((S)-3-oxo-1-((S)-2-oxopyrrolidin-3-yl)-4-(trifluoromethoxy)butan-2-yl)carbamoyl)-hexahydrocyclo-penta[c]-pyrrol-2(1H)-yl)acetate]			EC50 [3]: > 1 µM
COc1cccc2[nH]c(C(=O)N3CC4(CC4)C[C@H]3C(=O)N[C@@H](C[C@@H]3CCNC3=O)C(=O)COC(F)(F)F)cc12 [Compound 605, (S)-5-(4-methoxy-1H-indole-2-carbonyl)-N-((S)-3-oxo-1-((S)-2-oxopyrrolidin-3-yl)-4-(trifluorometh-oxy)butan-2-yl)-5-azaspiro[2.4]heptane-6-carboxamide]	< 0.05 µM		
O=C1NCC[C@H]1C[C@H](NC(=O)[C@@H]1CC2(CC2)CN1C(=O)CNS(=O)(=O)Nc1ccccc1)C(=O)COC(F)(F)F [Compound 669, (S)-N-((S)-3-oxo-1-((S)-2-oxopyrrolidin-3-yl)-4-(trifluoromethoxy)butan-2-yl)-5-((N-phenylsulfamoyl)glycyl)-5-azaspiro[2.4]heptane-6-carboxamide]	0.05 to 0.2 µM		
CC(C)(C)c1cccc(C(=O)N2CC3(CC3)C[C@H]2C(=O)N[C@@H](C[C@@H]2CCNC2=O)C(=O)COC(F)(F)F)c1 [Compound 458, (S)-5-(3-(tert-butyl)benzoyl)-N-((S)-3-oxo-1-((S)-2-oxopyrrolidin-3-yl)-4-(trifluoromethoxy)butan-2-yl)-5-azaspiro[2.4]heptane-6-carboxamide]	< 0.05 µM		
CC(C)(F)c1cc(C(=O)NC(CC2CCOCC2)C(=O)N[C@@H](C[C@@H]2CCNC2=O)C(=O)COC(F)(F)F)no1 (stereo partly drawn) [Compound 499, 5-(2-fluoropropan-2-yl)-N-(l-oxo-1-(((S)-3-oxo-1-((S)-2-oxopyrrolidin-3-yl)-4-(trifluoromethoxy)butan-2-yl)amino)-3-(tetrahydro-2H-pyran-4-yl)propan-2-yl)isoxazole-3-carboxamide]	0.05 to 0.2 µM		
CC12COC(C(=O)N3C[C@@H]4CCC[C@@H]4[C@H]3C(=O)N[C@@H](C[C@@H]3CCNC3=O)C(=O)COC(F)(F)F)(C1)C2 [Compound 312, (1S,3aR,6aS)-2-(4-methyl-2-oxabicyclo-[2.1.1]hexane-1-carbonyl)-N-((S)-3-oxo-1-((S)-2-oxopyrrolidin-3-yl)-4-(trifluoromethoxy)butan-2-yl)octahydrocyclo-penta[c]pyrrole-1-carboxamide]		0.05 to 0.2 µM	
CC(C)C[C@H](NC(=O)C(=O)Nc1cccc2ccccc12)C(=O)N[C@@H](C[C@@H]1CCNC1=O)C(=O)COc1c(F)c(F)cc(F)c1F [Compound 51, N1-((S)-4-methyl-1-oxo-1-(((S)-3-oxo-1-((S)-2-oxopyrrolidin-3-yl)-4-(2,3,5,6-tetrafluorophenoxy)butan-2-yl)amino)pentan-2-yl)-N2-(naphthalen-1-yl)oxalamide]		< 0.05 µM	
CCNC(=O)O[C@@H](C(=O)N1CC2(CC2)C[C@H]1C(=O)N[C@@H](C[C@@H]1CCNC1=O)C(=O)COC(F)(F)F)C(C)(C)C [Compound 332, (R)-3,3-dimethyl-1-oxo-l-((S)-6-(((S)-3-oxo-1-((S)-2-oxopyrrolidin-3-yl)-4-(trifluoromethoxy)butan-2-yl)carbamoyl)-5-azaspiro[2.4]heptan-5-yl)butan-2-yl ethylcarbamate]			EC50: 0.5 to 1 µM
Cc1ccccc1NC(=O)C(=O)N[C@@H](CC1CC1)C(=O)N[C@@H](C[C@@H]1CCNC1=O)C(=O)COC(F)(F)F [Compound 507, N1-((S)-3-cyclopropyl-1-oxo-1-(((S)-3-oxo-1-((S)-2-oxopyrrolidin-3-yl)-4-(trifluoromethoxy)butan-2-yl)amino)propan-2-yl)-N2-(o-tolyl)oxalamide]	< 0.05 µM		
CC[C@@H](NC(=O)OC(C)(C)C)C(=O)N1C[C@H]2[C@@H]([C@H]1C(=O)N[C@@H](CC1CCNC1=O)C(=O)COC(F)(F)F)C2(C)C (stereo in doubt) [Compound 438, tert-butyl ((R)-1-((1R,2S,5S)-6,6-dimethyl-2-(((S)-3-oxo-1-((S)-2-oxopyrrolidin-3-yl)-4-(trifluoromethoxy)butan-2-yl)carbamoyl)-3-azabicyclo[3.1.0]-hexan-3-yl)-1-oxobutan-2-yl)carbamate]	< 0.05 µM		
O=C1NCC[C@H]1C[C@H](NC(=O)[C@@H]1CC2(CC2)CN1C(=O)[C@H](O)Cc1ccccc1)C(=O)COC(F)(F)F [Compound 398, (S)-5-((R)-2-hydroxy-3-phenylpropanoyl)-N-((S)-3-oxo-1-((S)-2-oxopyrrolidin-3-yl)-4-(trifluoromethoxy)butan-2-yl)-5-azaspiro[2.4]heptane-6-carboxamide]		0.05 to 0.2 µM	
O=C1NCC[C@H]1C[C@H](NC(=O)[C@@H]1[C@H]2CCC[C@H]2CN1C(=O)C1OCCC1(F)F)C(=O)COC(F)(F)F (stereo partly drawn) [Compound 323, (1S,3aR,6aS)-2-(3,3-difluorotetrahydrofuran-2-carbonyl)-N-((S)-3-oxo-1-((S)-2-oxopyrrolidin-3-yl)-4-(trifluoromethoxy)butan-2-yl)octahydrocyclo-penta[c]pyrrole-1-carboxamide]		0.05 to 0.2 µM	
O=C1NCC[C@H]1C[C@H](NC(=O)[C@@H]1CC2(CC2)CN1C(=O)COCC(F)(F)F)C(=O)COC(F)(F)F [Compound 673, (S)-N-((S)-3-oxo-1-((S)-2-oxopyrrolidin-3-yl)-4-(trifluoromethoxy)butan-2-yl)-5-(2-(2,2,2-trifluoroethoxy)acetyl)-5-azaspiro[2.4]heptane-6-carboxamide]	0.05 to 0.2 µM		
CC(C)(C)NC(=O)C(=O)N1CC2(COC2)C[C@H]1C(=O)N[C@@H](C[C@@H]1CCNC1=O)C(=O)COC(F)(F)F [Compound 515, (S)-6-(2-(tert-butylamino)-2-oxoacetyl)-N-((S)-3-oxo-1-((S)-2-oxopyrrolidin-3-yl)-4-(trifluoromethoxy)butan-2-yl)-2-oxa-6-azaspiro[3.4]octane-7-carboxamide]			EC50 [3]: > 1 µM
CC(C)C[C@H](NC(=O)OC/C=C/c1cccc(Cl)c1)C(=O)N[C@@H](C[C@@H]1CCNC1=O)C(=O)COc1c(F)c(F)cc(F)c1F [Compound 139, (E)-3-(3-chlorophenyl)allyl ((S)-4-methyl-1-oxo-1-(((S)-3-oxo-1-((S)-2-oxopyrrolidin-3-yl)-4-(2,3,5,6-tetrafluorophenoxy)butan-2-yl)amino)pentan-2-yl)carbamate]			EC50 (HeLa-ACE2 cells, SARS-CoV-2 infection, 24 h, cells given as a bound): > 1 µM
Cc1cc(Cl)ccc1NC(=O)C(=O)N[C@@H](CC(C)C)C(=O)N[C@@H](C[C@@H]1CCNC1=O)C(=O)COc1c(F)c(F)cc(F)c1F [Compound 77, N1-(4-chloro-2-methylphenyl)-N2-((S)-4-methyl-1-oxo-1-(((S)-3-oxo-1-((S)-2-oxopyrrolidin-3-yl)-4-(2,3,5,6-tetrafluorophenoxy)butan-2-yl)amino)pentan-2-yl)oxalamide]		< 0.05 µM	
